From the NIST ThermoML archive (doi:10.1021/je600583u)
± gives the expanded uncertainty stated by the source.

Experiment: xn = mol fraction of the nth substance listed
Details: Fluid (supercritical or subcritical phases), isochoric method

CC(F)F [1,1-difluoroethane] + O=C=O
Details	molar volume [m3/mol]
293.08 K, 3005 kPa, x2 = 0.873	0.000595 ± 1e-06
293.09 K, 577 kPa, x2 = 0.25	0.003751 ± 8e-06
293.09 K, 699 kPa, x2 = 0.389	0.00308 ± 6e-06
293.09 K, 930 kPa, x2 = 0.503	0.002291 ± 5e-06
293.09 K, 1290 kPa, x2 = 0.685	0.001629 ± 3e-06
293.09 K, 1572 kPa, x2 = 0.731	0.001321 ± 3e-06
293.1 K, 1257 kPa, x2 = 0.631	0.001641 ± 3e-06
298.07 K, 590 kPa, x2 = 0.25	0.003752 ± 8e-06
298.07 K, 715 kPa, x2 = 0.389	0.003081 ± 6e-06
298.07 K, 952 kPa, x2 = 0.503	0.002292 ± 5e-06
298.07 K, 1610 kPa, x2 = 0.731	0.001321 ± 3e-06
298.07 K, 3114 kPa, x2 = 0.873	0.000595 ± 1e-06
298.08 K, 1320 kPa, x2 = 0.685	0.00163 ± 3e-06
298.09 K, 1287 kPa, x2 = 0.631	0.001641 ± 3e-06
303.04 K, 3203 kPa, x2 = 0.873	0.000595 ± 1e-06
303.05 K, 602 kPa, x2 = 0.25	0.003753 ± 8e-06
303.05 K, 973 kPa, x2 = 0.503	0.002292 ± 5e-06
303.06 K, 589 kPa, x2 = 0.117	0.003796 ± 8e-06
303.06 K, 731 kPa, x2 = 0.389	0.003081 ± 6e-06
303.06 K, 1350 kPa, x2 = 0.685	0.00163 ± 3e-06
303.06 K, 1648 kPa, x2 = 0.731	0.001321 ± 3e-06
303.07 K, 1317 kPa, x2 = 0.631	0.001642 ± 3e-06
308.03 K, 602 kPa, x2 = 0.117	0.003797 ± 8e-06
308.03 K, 3292 kPa, x2 = 0.873	0.000595 ± 1e-06
308.04 K, 615 kPa, x2 = 0.25	0.003753 ± 8e-06
308.04 K, 746 kPa, x2 = 0.389	0.003082 ± 6e-06
308.04 K, 994 kPa, x2 = 0.503	0.002293 ± 5e-06
308.04 K, 1380 kPa, x2 = 0.685	0.00163 ± 3e-06
308.05 K, 1346 kPa, x2 = 0.631	0.001642 ± 3e-06
308.05 K, 1685 kPa, x2 = 0.731	0.001322 ± 3e-06
313.02 K, 615 kPa, x2 = 0.117	0.003798 ± 8e-06
313.02 K, 3380 kPa, x2 = 0.873	0.000595 ± 1e-06
313.03 K, 627 kPa, x2 = 0.25	0.003754 ± 8e-06
313.03 K, 761 kPa, x2 = 0.389	0.003083 ± 6e-06
313.03 K, 1015 kPa, x2 = 0.503	0.002293 ± 5e-06
313.03 K, 1409 kPa, x2 = 0.685	0.001631 ± 3e-06
313.03 K, 1722 kPa, x2 = 0.731	0.001322 ± 3e-06
313.04 K, 1375 kPa, x2 = 0.631	0.001642 ± 3e-06
318 K, 3467 kPa, x2 = 0.873	0.000596 ± 1e-06
318.01 K, 627 kPa, x2 = 0.117	0.003799 ± 8e-06
318.01 K, 776 kPa, x2 = 0.389	0.003084 ± 6e-06
318.01 K, 1035 kPa, x2 = 0.503	0.002294 ± 5e-06
318.01 K, 1438 kPa, x2 = 0.685	0.001631 ± 3e-06
318.02 K, 640 kPa, x2 = 0.25	0.003755 ± 8e-06
318.02 K, 1758 kPa, x2 = 0.731	0.001322 ± 3e-06
318.03 K, 1404 kPa, x2 = 0.631	0.001643 ± 3e-06
323 K, 640 kPa, x2 = 0.117	0.0038 ± 8e-06
323 K, 652 kPa, x2 = 0.25	0.003756 ± 8e-06
323 K, 791 kPa, x2 = 0.389	0.003084 ± 6e-06
323 K, 1056 kPa, x2 = 0.503	0.002294 ± 5e-06
323 K, 1467 kPa, x2 = 0.685	0.001632 ± 3e-06
323 K, 1794 kPa, x2 = 0.731	0.001322 ± 3e-06
323 K, 3554 kPa, x2 = 0.873	0.000596 ± 1e-06
323.01 K, 1433 kPa, x2 = 0.631	0.001643 ± 3e-06
327.97 K, 3638 kPa, x2 = 0.873	0.000596 ± 1e-06
327.98 K, 652 kPa, x2 = 0.117	0.003801 ± 8e-06
327.98 K, 1076 kPa, x2 = 0.503	0.002295 ± 5e-06
327.98 K, 1830 kPa, x2 = 0.731	0.001323 ± 3e-06
327.99 K, 664 kPa, x2 = 0.25	0.003757 ± 8e-06
327.99 K, 806 kPa, x2 = 0.389	0.003085 ± 6e-06
327.99 K, 1496 kPa, x2 = 0.685	0.001632 ± 3e-06
328 K, 1461 kPa, x2 = 0.631	0.001643 ± 3e-06
332.96 K, 3723 kPa, x2 = 0.873	0.000596 ± 1e-06
332.97 K, 664 kPa, x2 = 0.117	0.003801 ± 8e-06
332.97 K, 820 kPa, x2 = 0.389	0.003086 ± 6e-06
332.97 K, 1096 kPa, x2 = 0.503	0.002295 ± 5e-06
332.97 K, 1524 kPa, x2 = 0.685	0.001632 ± 3e-06
332.97 K, 1866 kPa, x2 = 0.731	0.001323 ± 3e-06
332.98 K, 676 kPa, x2 = 0.25	0.003758 ± 8e-06
332.98 K, 1489 kPa, x2 = 0.631	0.001644 ± 3e-06
337.94 K, 3807 kPa, x2 = 0.873	0.000596 ± 1e-06
337.95 K, 835 kPa, x2 = 0.389	0.003086 ± 6e-06
337.95 K, 1116 kPa, x2 = 0.503	0.002296 ± 5e-06
337.96 K, 677 kPa, x2 = 0.117	0.003802 ± 8e-06
337.96 K, 688 kPa, x2 = 0.25	0.003758 ± 8e-06
337.96 K, 1553 kPa, x2 = 0.685	0.001633 ± 3e-06
337.96 K, 1901 kPa, x2 = 0.731	0.001323 ± 3e-06
337.97 K, 1517 kPa, x2 = 0.631	0.001644 ± 3e-06
342.93 K, 3890 kPa, x2 = 0.873	0.000596 ± 1e-06
342.94 K, 850 kPa, x2 = 0.389	0.003087 ± 6e-06
342.94 K, 1136 kPa, x2 = 0.503	0.002296 ± 5e-06
342.94 K, 1580 kPa, x2 = 0.685	0.001633 ± 3e-06
342.94 K, 1936 kPa, x2 = 0.731	0.001324 ± 3e-06
342.95 K, 689 kPa, x2 = 0.117	0.003803 ± 8e-06
342.95 K, 700 kPa, x2 = 0.25	0.003759 ± 8e-06
342.96 K, 1545 kPa, x2 = 0.631	0.001645 ± 3e-06
